Laboratory results: BindingDB's records for doi:10.1021/jm000541z (Abbott Laboratories, 2001)
pKi: −log10 of the molar value.

Each compound was assayed against Alpha-1B adrenergic receptor (Mesocricetus auratus) (UniProt P18841) (assay: Binding affinity to hamster alpha-1B adrenergic receptor).
Alpha-1B adrenergic receptor (Mesocricetus auratus), sequence (P18841 whole entry, looked up): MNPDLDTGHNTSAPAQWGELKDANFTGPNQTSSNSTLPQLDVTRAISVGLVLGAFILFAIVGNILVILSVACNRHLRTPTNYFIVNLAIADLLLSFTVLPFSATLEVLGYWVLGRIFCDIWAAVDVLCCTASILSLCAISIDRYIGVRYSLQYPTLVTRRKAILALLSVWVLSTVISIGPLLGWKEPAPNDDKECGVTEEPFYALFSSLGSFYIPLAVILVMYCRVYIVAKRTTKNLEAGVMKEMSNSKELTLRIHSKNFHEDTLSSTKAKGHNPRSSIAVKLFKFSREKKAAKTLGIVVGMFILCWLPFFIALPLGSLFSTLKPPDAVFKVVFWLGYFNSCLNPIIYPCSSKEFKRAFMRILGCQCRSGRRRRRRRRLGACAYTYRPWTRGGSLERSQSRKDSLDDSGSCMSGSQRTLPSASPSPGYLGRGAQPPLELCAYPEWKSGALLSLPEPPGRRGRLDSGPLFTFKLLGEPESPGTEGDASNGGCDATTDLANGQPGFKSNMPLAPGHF

Row | SMILES | pKi
1 | COc1cccc2c1CC[C@H]1CN(CCn3c(=O)[nH]c4cccc(C)c4c3=O)C[C@@H]21 [3-[2-(6-Methoxy-1,3,3a,4,5,9b-hexahydro-benzo[e]isoindol-2-yl)-ethyl]-5-methyl-1H-quinazoline-2,4-dione] | 8.98
2 | COc1cccc2c1CC[C@H]1CN(CCn3c(=O)[nH]c4cc(C)c(C)cc4c3=O)C[C@@H]21 [3-[2-(6-Methoxy-1,3,3a,4,5,9b-hexahydro-benzo[e]isoindol-2-yl)-ethyl]-6,7-dimethyl-1H-quinazoline-2,4-dione] | 8.39
3 | COc1cccc2c1CC[C@H]1CN(CCn3c(=O)[nH]c4c(C)cc(C)cc4c3=O)C[C@@H]21 [3-[2-(6-Methoxy-1,3,3a,4,5,9b-hexahydro-benzo[e]isoindol-2-yl)-ethyl]-6,8-dimethyl-1H-quinazoline-2,4-dione] | 7.79
4 | COc1cccc2c1CC[C@H]1CN(CCn3c(=O)[nH]c4c(C)c(C)ccc4c3=O)C[C@@H]21 [3-[2-(6-Methoxy-1,3,3a,4,5,9b-hexahydro-benzo[e]isoindol-2-yl)-ethyl]-7,8-dimethyl-1H-quinazoline-2,4-dione] | 8.88
5 | COc1cccc2c1CC[C@H]1CN(CCn3c(=O)[nH]c4cc([N+](=O)[O-])ccc4c3=O)C[C@@H]21 [3-[2-(6-Methoxy-1,3,3a,4,5,9b-hexahydro-benzo[e]isoindol-2-yl)-ethyl]-7-nitro-1H-quinazoline-2,4-dione] | 8.48
6 | COc1cccc2c1CC[C@H]1CN(CCn3c(=O)[nH]c4cccc(Cl)c4c3=O)C[C@@H]21 [5-Chloro-3-[2-(6-methoxy-1,3,3a,4,5,9b-hexahydro-benzo[e]isoindol-2-yl)-ethyl]-1H-quinazoline-2,4-dione] | 9.04
7 | COc1cc2c(=O)n(CCN3C[C@@H]4CCc5c(OC)cccc5[C@@H]4C3)c(=O)n(C)c2cc1OC [6,7-Dimethoxy-3-[2-(6-methoxy-1,3,3a,4,5,9b-hexahydro-benzo[e]isoindol-2-yl)-ethyl]-1-methyl-1H-quinazoline-2,4-dione] | 8.48
8 | COc1cc2[nH]c(=O)n(CCN3C[C@@H]4CCc5c(OC)cccc5[C@@H]4C3)c(=O)c2cc1OC [6,7-Dimethoxy-3-[2-(6-methoxy-1,3,3a,4,5,9b-hexahydro-benzo[e]isoindol-2-yl)-ethyl]-1H-quinazoline-2,4-dione] | 8.19
9 | COc1cc2c(cc1OC)C(=O)N(CCN1C[C@@H]3CCc4c(OC)cccc4[C@@H]3C1)CN2 [6,7-Dimethoxy-3-[2-(6-methoxy-1,3,3a,4,5,9b-hexahydro-benzo[e]isoindol-2-yl)-ethyl]-2,3-dihydro-1H-quinazolin-4-one] | 7.02
10 | COc1cc2c(cc1OC)NC(=O)N(CCN1C[C@@H]3CCc4c(OC)cccc4[C@@H]3C1)C2 [6,7-Dimethoxy-3-[2-(6-methoxy-1,3,3a,4,5,9b-hexahydro-benzo[e]isoindol-2-yl)-ethyl]-3,4-dihydro-1H-quinazolin-2-one] | 6.72
11 | COc1cc2ncn(CCN3C[C@@H]4CCc5c(OC)cccc5[C@@H]4C3)c(=O)c2cc1OC [6,7-Dimethoxy-3-[2-(6-methoxy-1,3,3a,4,5,9b-hexahydro-benzo[e]isoindol-2-yl)-ethyl]-3H-quinazolin-4-one] | 7.82
12 | COc1cccc2c1CC[C@H]1CN(CCn3c(=O)[nH]c4cc(Cl)ccc4c3=O)C[C@@H]21 [7-Chloro-3-[2-(6-methoxy-1,3,3a,4,5,9b-hexahydro-benzo[e]isoindol-2-yl)-ethyl]-1H-quinazoline-2,4-dione] | 8.57
13 | COc1cccc2c1CC[C@H]1CN(CCn3c(=O)[nH]c4c(C(C)C)c(OC)sc4c3=O)C[C@@H]21 [7-Isopropyl-6-methoxy-3-[2-(6-methoxy-1,3,3a,4,5,9b-hexahydro-benzo[e]isoindol-2-yl)-ethyl]-1H-thieno[3,2-d]pyrimidine-2,4-dione] | 8.64
14 | COc1cccc2c1CC[C@H]1CN(CCn3c(=O)[nH]c4c(OC)cccc4c3=O)C[C@@H]21 [8-Methoxy-3-[2-(6-methoxy-1,3,3a,4,5,9b-hexahydro-benzo[e]isoindol-2-yl)-ethyl]-1H-quinazoline-2,4-dione] | 8.64

Continued, values first:

Row | pKi | SMILES
15 | 8.79 | COC(=O)c1ccc2c(=O)n(CCN3C[C@@H]4CCc5c(OC)cccc5[C@@H]4C3)c(=O)[nH]c2c1 [3-[2-(6-Methoxy-1,3,3a,4,5,9b-hexahydro-benzo[e]isoindol-2-yl)-ethyl]-2,4-dioxo-1,2,3,4-tetrahydro-quinazoline-7-carboxylic acid methyl ester]
16 | 8.47 | COC(=O)c1cc2[nH]c(=O)n(CCN3C[C@@H]4CCc5c(OC)cccc5[C@@H]4C3)c(=O)c2s1 [3-[2-(6-Methoxy-1,3,3a,4,5,9b-hexahydro-benzo[e]isoindol-2-yl)-ethyl]-2,4-dioxo-1,2,3,4-tetrahydro-thieno[3,2-d]pyrimidine-6-carboxylic acid methyl ester]
17 | 7.95 | COc1cccc2c1CC[C@H]1CN(CCn3c(=O)[nH]c4cc(-c5ccccc5)sc4c3=O)C[C@@H]21 [3-[2-(6-Methoxy-1,3,3a,4,5,9b-hexahydro-benzo[e]isoindol-2-yl)-ethyl]-6-phenyl-1H-thieno[3,2-d]pyrimidine-2,4-dione]
18 | 8.03 | COc1cc2[nH]c(=O)n(CCN3C[C@@H]4CCc5c(OC)cccc5[C@@H]4C3)c(=O)c2cc1Cl [6-Chloro-7-methoxy-3-[2-(6-methoxy-1,3,3a,4,5,9b-hexahydro-benzo[e]isoindol-2-yl)-ethyl]-1H-quinazoline-2,4-dione]
19 | 8.42 | COc1ccc2[nH]c(=O)n(CCN3C[C@@H]4CCc5c(OC)cccc5[C@@H]4C3)c(=O)c2c1 [6-Methoxy-3-[2-(6-methoxy-1,3,3a,4,5,9b-hexahydro-benzo[e]isoindol-2-yl)-ethyl]-1H-quinazoline-2,4-dione]
20 | 9.13 | COc1cc2[nH]c(=O)n(CCN3C[C@@H]4CCc5c(OC)cccc5[C@@H]4C3)c(=O)c2s1 [6-Methoxy-3-[2-(6-methoxy-1,3,3a,4,5,9b-hexahydro-benzo[e]isoindol-2-yl)-ethyl]-1H-thieno[3,2-d]pyrimidine-2,4-dione]
21 | 8.15 | COc1cccc2c1CC[C@H]1CN(CCn3c(=O)[nH]c4c(C)c(OC)sc4c3=O)C[C@@H]21 [6-Methoxy-3-[2-(6-methoxy-1,3,3a,4,5,9b-hexahydro-benzo[e]isoindol-2-yl)-ethyl]-7-methyl-1H-thieno[3,2-d]pyrimidine-2,4-dione]
22 | 9.18 | COc1ccc2c(=O)n(CCN3C[C@@H]4CCc5c(OC)cccc5[C@@H]4C3)c(=O)[nH]c2c1 [7-Methoxy-3-[2-(6-methoxy-1,3,3a,4,5,9b-hexahydro-benzo[e]isoindol-2-yl)-ethyl]-1H-quinazoline-2,4-dione]
23 | 9.08 | COc1cccc2c1CC[C@H]1CN(CCn3c(=O)[nH]c4cc(NC(C)=O)ccc4c3=O)C[C@@H]21 [N-{3-[2-(6-Methoxy-1,3,3a,4,5,9b-hexahydro-benzo[e]isoindol-2-yl)-ethyl]-2,4-dioxo-1,2,3,4-tetrahydro-quinazolin-7-yl}-acetamide]
